As usually defined, the IC50 is the concentration that inhibits the measured activity by half. Low readings indicate greater potency in that assay, high ones weaker potency in that assay.

Some results are limits rather than exact numbers.

The subject of assay [1] is ACHN cell line. As to the kind of experiment: Drug screen of the SelleckChem kinase inhibitor library with and without SU-329, Cell-Titer Glo after 5 days. The format is cell-based. The note with it: kinase inhibitors 200 nM with and without 5 μM SU-329. As for the experimental part:
FIG. 8. Drug screen identifies signaling pathways that affect the impact of LKB1 activation. Drug screen of the SelleckChem kinase inhibitor library was performed in the ACHN cell line. Sensitivity to kinase inhibitors used at 200 nM with and without 5 μM of SU-329 was measured after 5 days with Cell-Titer Glo. […] The terms SU-329 and SU20668-0329-01 refer to the same compound.

The target in assay [2] is T1, LKB1 (Homo sapiens, UniProt Q15831+Q7RTN6).
T1 sequence (Q15831 1-433): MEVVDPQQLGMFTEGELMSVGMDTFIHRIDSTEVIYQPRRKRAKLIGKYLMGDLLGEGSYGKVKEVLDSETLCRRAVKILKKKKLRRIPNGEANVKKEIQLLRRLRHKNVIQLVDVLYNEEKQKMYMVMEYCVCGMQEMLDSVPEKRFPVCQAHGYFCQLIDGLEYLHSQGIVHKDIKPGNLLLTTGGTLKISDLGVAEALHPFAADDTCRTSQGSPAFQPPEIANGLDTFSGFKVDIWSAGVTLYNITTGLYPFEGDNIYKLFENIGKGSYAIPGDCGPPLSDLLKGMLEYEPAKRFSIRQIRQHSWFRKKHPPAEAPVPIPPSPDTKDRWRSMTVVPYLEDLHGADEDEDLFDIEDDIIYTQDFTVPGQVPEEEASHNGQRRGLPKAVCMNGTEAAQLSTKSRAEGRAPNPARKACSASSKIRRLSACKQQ
T1 sequence (Q7RTN6 1-431): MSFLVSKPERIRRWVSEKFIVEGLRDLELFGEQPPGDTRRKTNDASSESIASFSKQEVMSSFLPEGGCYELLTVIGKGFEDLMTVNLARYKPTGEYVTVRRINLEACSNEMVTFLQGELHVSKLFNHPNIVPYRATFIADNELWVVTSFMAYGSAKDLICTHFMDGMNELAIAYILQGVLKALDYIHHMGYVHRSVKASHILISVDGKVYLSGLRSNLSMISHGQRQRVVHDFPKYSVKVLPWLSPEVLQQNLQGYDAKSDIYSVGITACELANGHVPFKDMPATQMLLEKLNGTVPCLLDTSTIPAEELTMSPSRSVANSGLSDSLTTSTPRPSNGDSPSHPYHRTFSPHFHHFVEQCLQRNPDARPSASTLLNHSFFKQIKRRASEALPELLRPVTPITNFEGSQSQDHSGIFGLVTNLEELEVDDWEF
T1 sequence (Q9Y376 1-341 partner): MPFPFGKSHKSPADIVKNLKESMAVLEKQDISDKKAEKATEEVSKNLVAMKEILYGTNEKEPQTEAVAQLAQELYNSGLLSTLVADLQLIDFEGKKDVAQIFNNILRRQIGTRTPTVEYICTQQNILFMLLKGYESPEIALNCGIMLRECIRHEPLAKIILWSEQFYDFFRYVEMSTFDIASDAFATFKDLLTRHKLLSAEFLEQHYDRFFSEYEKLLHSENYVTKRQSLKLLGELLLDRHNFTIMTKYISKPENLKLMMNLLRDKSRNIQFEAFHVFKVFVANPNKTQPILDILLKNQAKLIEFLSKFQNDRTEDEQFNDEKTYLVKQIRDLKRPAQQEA
As to the kind of experiment: LKB1 kinase assay with recombinant LKB1 (LKB1 in vitro activation). It is filed as biochemical. The text has this:
Screening in human cancer cell lines has identified cell lines responsive to LKB1 activation and predictive biomarkers for compound development have been determined. Installation of a novel polar functionality specifically designed to target STRAD's unique phosphate-binding residues led to the identification of compound SU-329 which is currently progressing through efficacy models evaluating tumor growth inhibition. The terms SU-329 and SU20668-0329-01 refer to the same compound.
Small Molecule Activation of the LKB1 Tumor Suppressor. Cancer treatment has been considerably advanced by the relatively recent development of small molecules capable of inhibiting oncogenic kinase signaling, but exogenous enhancement of tumor suppressive signaling remains elusive. Here, we sought to design small molecules capable of activating the tumor suppressor kinase LKB1. Designing compounds capable of increasing kinase activity has been more structurally challenging than those aimed at inhibiting them: apart from the ATP-binding pocket, there is rarely a site that would be conducive to binding a small molecule. Unlike most protein kinases, LKB1 signals as part of an obligate trimer consisting of itself, a scaffolding protein (MO25), and a pseudokinase (STRAD). As part of its mechanism of activation, LKB1 must bind to an ATP-bound STRAD to take on its active kinase conformation. […]

Assay [3] deals with most sensitive cancer cell line. As to the kind of experiment: cell activity: CTG anti-proliferation in most sensitive cancer cell line. The format is cell-based. The note with it: APA analogs.
The target of assay [4] is T1, LKB1. The assay is described as follows: in vitro LKB1 functional activity. It is filed as biochemical. Particulars: APA analogs.

As to `COP(=O)(CS(=O)(=O)c1ccc(NC(=O)c2nc(-c3ccc(C)cc3)cnc2N)cc1)OC` [SU-329], in assay [1], the “response of LKB1 stimulation under inhibition of GSK-3” value is on record as “reduced the response of LKB1 stimulation”; the “response of LKB1 stimulation under inhibition of mTOR and components of the PI3K” value is recorded as “attenuated the response of LKB1 stimulation”. Besides, the “LKB1 in vitro activation” value in assay [2] is listed as “Single digit micro-molar”.
In turn, `CO[P@](C)(=O)CS(=O)(=O)c1ccc(NC(=O)c2nc(-c3ccc(C)cc3)cnc2N)cc1` [SU20668-0520, (S)-methyl (4-(3-amino-6-p-tolylpyrazine-2-carboxamido)phenylsulfonyl)methyl(methyl)phosphinate] displayed a half-maximal inhibitory concentration (IC50) in assay [3] of under 3000 nM. For the same molecule, in assay [4], the “LKB1 % Act. Increase” value was “A (A=>4000%)”.
For `CC(=O)NS(=O)(=O)c1ccc(NC(=O)c2nc(-c3ccc(C)s3)cnc2N)cc1` [SU20668-0349, N-(4-(N-acetylsulfamoyl)phenyl)-3-amino-6-(5-methylthiophen-2-yl)pyrazine-2-carboxamide], in that order: 3000 to 50000 nM and “C (C=199-1000%)”.
Taken in the same sequence, the figures for `Cc1ccc(-c2cnc(N)c(C(=O)Nc3ccc(S(N)(=O)=O)c(F)c3)n2)cc1` [SU20668-0305, 3-amino-N-(3-fluoro-4-sulfamoylphenyl)-6-p-tolylpyrazine-2-carboxamide] were under 3000 nM and “C (C=199-1000%)”.
Taken in the same sequence, the figures for `CCO[P@](=O)(CC)CS(=O)(=O)c1ccc(NC(=O)c2nc(-c3ccc(C)cc3)cnc2N)cc1` [SU20668-0521, (R)-ethyl (4-(3-amino-6-p-tolylpyrazine-2-carboxamido)phenylsulfonyl)methyl(ethyl)phosphinate] were under 3000 nM and “A (A=>4000%)”.

The values above are taken from US12195490B2, “STRAD-binding agents and uses thereof” (The Regents of the University of California, priority 2020, dated 2025).
